Experimental data as given in paper PMC5218480 (PLoS ONE, 2017).

Test system: MV-4-11 cells
Experiment: Gene expression microarray analysis (Affymetrix PrimeView) and GSEA
Type: cell-based, human
Parameters: RFU PODN (11730768_x_at) / Fold change /veh PODN (11730768_x_at) / RFU LINC00158 (11744669_a_at) / Fold change /veh LINC00158 (11744669_a_at) / RFU DUSP10 (11751237_a_at) / Fold change /veh DUSP10 (11751237_a_at) / RFU ID3 (11757404_x_at) / Fold change /veh ID3 (11757404_x_at) / RFU PLEKHG5 (11737974_s_at) / Fold change /veh PLEKHG5 (11737974_s_at) / RFU LRRC4B (11730491_at) / Fold change /veh LRRC4B (11730491_at) / RFU GIMAP4 (11747438_a_at) / Fold change /veh GIMAP4 (11747438_a_at) / RFU KRT8 (11758183_x_at) / Fold change /veh KRT8 (11758183_x_at) / RFU CNN1 (11734310_a_at) / Fold change /veh CNN1 (11734310_a_at) / RFU VPS37D (11726825_at) / Fold change /veh VPS37D (11726825_at) / RFU C10orf10 (11716522_x_at) / Fold change /veh C10orf10 (11716522_x_at) / RFU KIR2DL2 /// KIR2DL4 /// KIR2DL5A /// KIR2DL5B /// KIR2DS1 /// KIR2DS2 /// KIR2DS3 /// KIR2DS4 /// KIR3DL3 /// KIR3DL3 /// KIR3DS1 (11738374_at) / Fold change /veh KIR2DL2 /// KIR2DL4 /// KIR2DL5A /// KIR2DL5B /// KIR2DS1 /// KIR2DS2 /// KIR2DS3 /// KIR2DS4 /// KIR3DL3 /// KIR3DL3 /// KIR3DS1 (11738374_at) / RFU C1QL1 (11718748_at) / Fold change /veh C1QL1 (11718748_at) / RFU TMPRSS4 (11747572_a_at) / Fold change /veh TMPRSS4 (11747572_a_at) / RFU HAMP (11756126_x_at) / Fold change /veh HAMP (11756126_x_at) / RFU RNFT2 (11725882_a_at) / Fold change /veh RNFT2 (11725882_a_at) / RFU NR4A2 (11747474_a_at) / Fold change /veh NR4A2 (11747474_a_at) / RFU ABCC12 (11746883_a_at) / Fold change /veh ABCC12 (11746883_a_at) / RFU TMEM136 (11760407_x_at) / Fold change /veh TMEM136 (11760407_x_at) / RFU CLDN22 /// WWC2 (11732394_at) / Fold change /veh CLDN22 /// WWC2 (11732394_at) / RFU HLA-DPB1 (11760878_x_at) / Fold change /veh HLA-DPB1 (11760878_x_at) / RFU SPINT1 (11716480_a_at) / Fold change /veh SPINT1 (11716480_a_at) / RFU GAP43 (11754022_s_at) / Fold change /veh GAP43 (11754022_s_at) / RFU A4GNT (11735810_at) / Fold change /veh A4GNT (11735810_at) / RFU PRB3 (11715151_x_at) / Fold change /veh PRB3 (11715151_x_at) / RFU TUBB4B (11761932_at) / Fold change /veh TUBB4B (11761932_at) / RFU CAPN14 (11732068_a_at) / Fold change /veh CAPN14 (11732068_a_at) / RFU TMCC2 (11721928_a_at) / Fold change /veh TMCC2 (11721928_a_at) / RFU IRGQ (11745062_a_at) / Fold change /veh IRGQ (11745062_a_at) / RFU FAM174B (11720279_a_at) / Fold change /veh FAM174B (11720279_a_at) / RFU TMPRSS4 (11748680_a_at) / Fold change /veh TMPRSS4 (11748680_a_at) / RFU FAM212B (11763350_a_at) / Fold change /veh FAM212B (11763350_a_at) / RFU PLEKHG5 (11743358_a_at) / Fold change /veh PLEKHG5 (11743358_a_at) / RFU ZSCAN30 (11745921_a_at) / Fold change /veh ZSCAN30 (11745921_a_at) / RFU CMKLR1 (11741424_a_at) / Fold change /veh CMKLR1 (11741424_a_at) / RFU LOC101060620 /// MAPK8IP1 (11723275_at) / Fold change /veh LOC101060620 /// MAPK8IP1 (11723275_at) / RFU SPTSSB (11747773_x_at) / Fold change /veh SPTSSB (11747773_x_at) / RFU PRSS12 (11739890_at) / Fold change /veh PRSS12 (11739890_at) / RFU BIN1 (11741810_x_at) / Fold change /veh BIN1 (11741810_x_at) / RFU WNT11 (11732464_a_at) / Fold change /veh WNT11 (11732464_a_at) / RFU C10orf10 (11716521_a_at) / Fold change /veh C10orf10 (11716521_a_at) / RFU C5orf56 (11738089_at) / Fold change /veh C5orf56 (11738089_at) / RFU CYB561 (11721691_x_at) / Fold change /veh CYB561 (11721691_x_at) / RFU ANKRD19P (11752326_a_at) / Fold change /veh ANKRD19P (11752326_a_at) / RFU OR2T12 /// OR2T33 /// OR2T8 (11738714_s_at) / Fold change /veh OR2T12 /// OR2T33 /// OR2T8 (11738714_s_at) / RFU VCAN (11748164_a_at) / Fold change /veh VCAN (11748164_a_at) / RFU JSRP1 (11732532_at) / Fold change /veh JSRP1 (11732532_at) / RFU KRTAP10-11 (11738290_x_at) / Fold change /veh KRTAP10-11 (11738290_x_at) / RFU MYO3A (11730013_a_at) / Fold change /veh MYO3A (11730013_a_at) / RFU EBF3 (11725865_a_at) / Fold change /veh EBF3 (11725865_a_at) / RFU CAMK2N1 (11719241_x_at) / Fold change /veh CAMK2N1 (11719241_x_at) / RFU C5orf56 (11738088_a_at) / Fold change /veh C5orf56 (11738088_a_at) / RFU OLFML3 (11715873_a_at) / Fold change /veh OLFML3 (11715873_a_at) / RFU LOC100653217 /// NTM (11731650_a_at) / Fold change /veh LOC100653217 /// NTM (11731650_a_at) / RFU MAPK11 (11762145_a_at) / Fold change /veh MAPK11 (11762145_a_at) / RFU FIZ1 (11724087_x_at) / Fold change /veh FIZ1 (11724087_x_at) / RFU OASL (11726364_x_at) / Fold change /veh OASL (11726364_x_at) / RFU SOX15 (11748057_x_at) / Fold change /veh SOX15 (11748057_x_at) / RFU CD79A (11719716_a_at) / Fold change /veh CD79A (11719716_a_at) / RFU HIST1H1D (11736915_at) / Fold change /veh HIST1H1D (11736915_at) / RFU CASKIN2 (11723855_a_at) / Fold change /veh CASKIN2 (11723855_a_at) / RFU LOC730098 (11760151_x_at) / Fold change /veh LOC730098 (11760151_x_at) / RFU OR4N2 (11742367_at) / Fold change /veh OR4N2 (11742367_at) / RFU PRRT2 (11749266_a_at) / Fold change /veh PRRT2 (11749266_a_at) / RFU SNX32 (11753110_a_at) / Fold change /veh SNX32 (11753110_a_at) / RFU CDHR5 (11726645_a_at) / Fold change /veh CDHR5 (11726645_a_at) / RFU RCAN1 (11760418_a_at) / Fold change /veh RCAN1 (11760418_a_at) / RFU FAM167A (11723789_a_at) / Fold change /veh FAM167A (11723789_a_at) / RFU FAM26E (11764081_at) / Fold change /veh FAM26E (11764081_at) / RFU ISYNA1 (11749810_s_at) / Fold change /veh ISYNA1 (11749810_s_at) / RFU ACY1 (11761880_at) / Fold change /veh ACY1 (11761880_at) / RFU 11764098_at / Fold change /veh 11764098_at / RFU SAMD14 (11745864_x_at) / Fold change /veh SAMD14 (11745864_x_at) / RFU NPB (11741838_a_at) / Fold change /veh NPB (11741838_a_at) / RFU TMPRSS6 (11731388_a_at) / Fold change /veh TMPRSS6 (11731388_a_at) / RFU KRTAP10-2 (11738614_at) / Fold change /veh KRTAP10-2 (11738614_at) / RFU ARHGAP8 /// PRR5-ARHGAP8 (11727945_x_at) / Fold change /veh ARHGAP8 /// PRR5-ARHGAP8 (11727945_x_at) / RFU KRTAP5-7 /// NADSYN1 (11734609_at) / Fold change /veh KRTAP5-7 /// NADSYN1 (11734609_at) / RFU RASL12 (11751679_a_at) / Fold change /veh RASL12 (11751679_a_at) / RFU CDKN2B (11736163_a_at) / Fold change /veh CDKN2B (11736163_a_at) / RFU PRF1 (11729649_at) / Fold change /veh PRF1 (11729649_at) / RFU, ZNF638 /// ZNF638-IT1 / Fold change vs veh, ZNF638 /// ZNF638-IT1 / RFU, PANK3 / Fold change vs veh, PANK3 / RFU, SH3YL1 / Fold change vs veh, SH3YL1 / RFU, ZEB2 / Fold change vs veh, ZEB2 / RFU, NRIP1 / Fold change vs veh, NRIP1 / RFU, PTTG1IP / Fold change vs veh, PTTG1IP / RFU, CAPN2 / Fold change vs veh, CAPN2 / RFU, MED14 / Fold change vs veh, MED14 / RFU, SNORA58 / Fold change vs veh, SNORA58 / RFU, C1orf63 / Fold change vs veh, C1orf63 / RFU, LRRFIP1 / Fold change vs veh, LRRFIP1 / RFU, NDUFAF7 / Fold change vs veh, NDUFAF7 / RFU, SLC12A2 / Fold change vs veh, SLC12A2 / RFU, IBTK / Fold change vs veh, IBTK / RFU, ESF1 / Fold change vs veh, ESF1 / Fold change vs veh, TMEM50B / RFU, TAOK1 / Fold change vs veh, TAOK1 / RFU, ACBD3 / Fold change vs veh, ACBD3 / RFU, TMA16 / Fold change vs veh, TMA16 / RFU, RWDD3 / Fold change vs veh, RWDD3 / RFU, BCAT1 / Fold change vs veh, BCAT1 / RFU, EDEM3 / Fold change vs veh, EDEM3 / RFU, TMEM33 / Fold change vs veh, TMEM33 / RFU, WDR75 / Fold change vs veh, WDR75 / RFU, AHCTF1 / Fold change vs veh, AHCTF1 / RFU, TFRC / Fold change vs veh, TFRC / RFU, ZDHHC17 / Fold change vs veh, ZDHHC17 / RFU, NOM1 / Fold change vs veh, NOM1 / RFU, ARL8B / Fold change vs veh, ARL8B / RFU, ZBTB11 / Fold change vs veh, ZBTB11 / RFU, TAMM41 / Fold change vs veh, TAMM41 / RFU, KIAA1704 /// LOC100996395 / Fold change vs veh, KIAA1704 /// LOC100996395 / RFU, ING1 / Fold change vs veh, ING1 / RFU, TRMT61B / Fold change vs veh, TRMT61B / RFU, FUBP3 / Fold change vs veh, FUBP3 / RFU, TP53 / Fold change vs veh, TP53 / RFU, TNKS2 / Fold change vs veh, TNKS2 / RFU, ZFP14 / Fold change vs veh, ZFP14 / RFU, ACTR2 / Fold change vs veh, ACTR2 / RFU, PPP3R1 / Fold change vs veh, PPP3R1 / RFU, PIK3R1 / Fold change vs veh, PIK3R1 / RFU, HNRNPA1 / Fold change vs veh, HNRNPA1 / RFU, RNF170 / Fold change vs veh, RNF170 / RFU, ZNF28 / Fold change vs veh, ZNF28 / RFU, RNGTT / Fold change vs veh, RNGTT / RFU, OGT / Fold change vs veh, OGT / RFU, BRD1 / Fold change vs veh, BRD1 / RFU, MARS / Fold change vs veh, MARS / RFU, ZNF655 / Fold change vs veh, ZNF655 / RFU, FAHD1 / Fold change vs veh, FAHD1 / RFU, BDP1 / Fold change vs veh, BDP1 / RFU, LRRCC1 / Fold change vs veh, LRRCC1 / RFU, ARID1A / Fold change vs veh, ARID1A / RFU, ZNF146 / Fold change vs veh, ZNF146 / RFU, ZNF330 / Fold change vs veh, ZNF330 / RFU, GPN3 / Fold change vs veh, GPN3 / RFU, C9orf123 / Fold change vs veh, C9orf123 / RFU, N4BP2L2 / Fold change vs veh, N4BP2L2 / RFU, ARFIP1 / Fold change vs veh, ARFIP1 / RFU, FAM179B / Fold change vs veh, FAM179B / RFU, BCL10 / Fold change vs veh, BCL10 / RFU, UHRF1BP1L / Fold change vs veh, UHRF1BP1L / RFU, BET1 / Fold change vs veh, BET1 / RFU, CNOT2 / Fold change vs veh, CNOT2 / RFU, ZNF268 / Fold change vs veh, ZNF268 / Fold change vs veh, ZNF507 / RFU, DGCR2 / Fold change vs veh, DGCR2 / RFU, WDSUB1 / Fold change vs veh, WDSUB1 / Fold change vs veh, HSP90B1 /// MIR3652 / RFU, ADSS / Fold change vs veh, ADSS / RFU, GK / Fold change vs veh, GK / RFU, ZNF148 / Fold change vs veh, ZNF148 / RFU, TAF9 / Fold change vs veh, TAF9 / RFU, SLC1A5 / Fold change vs veh, SLC1A5 / RFU, SLMO2 / Fold change vs veh, SLMO2 / RFU, ABCC4 / Fold change vs veh, ABCC4 / RFU, LOC101060439 /// RAP1B / Fold change vs veh, LOC101060439 /// RAP1B / RFU, RFX7 / Fold change vs veh, RFX7 / RFU, GTPBP10 / Fold change vs veh, GTPBP10 / RFU, CNEP1R1 / Fold change vs veh, CNEP1R1 / RFU, BIVM-ERCC5 /// ERCC5 / Fold change vs veh, BIVM-ERCC5 /// ERCC5 / RFU, ILF3 / Fold change vs veh, ILF3 / RFU 11762660_at / Fold change /veh 11762660_at / RFU VCAN (11757783_s_at) / Fold change /veh VCAN (11757783_s_at) / RFU DDX43 (11728927_at) / Fold change /veh DDX43 (11728927_at) / RFU KRT8 (11758188_x_at) / Fold change /veh KRT8 (11758188_x_at) / RFU NKD1 (11759106_at) / Fold change /veh NKD1 (11759106_at) / RFU SRD5A1 (11742802_a_at) / Fold change /veh SRD5A1 (11742802_a_at) / RFU TPSAB1 /// TPSB2 (11721975_s_at) / Fold change /veh TPSAB1 /// TPSB2 (11721975_s_at) / RFU GSTM3 (11746129_a_at) / Fold change /veh GSTM3 (11746129_a_at) / RFU IL23R (11737362_x_at) / Fold change /veh IL23R (11737362_x_at) / RFU TMEM51 (11727254_a_at) / Fold change /veh TMEM51 (11727254_a_at) / RFU PIWIL2 (11732686_x_at) / Fold change /veh PIWIL2 (11732686_x_at) / RFU ORM1 (11744905_x_at) / Fold change /veh ORM1 (11744905_x_at) / RFU CCDC152 (11743942_at) / Fold change /veh CCDC152 (11743942_at) / RFU ECM1 (11717891_a_at) / Fold change /veh ECM1 (11717891_a_at) / RFU IL23R (11748794_a_at) / Fold change /veh IL23R (11748794_a_at) / RFU TNFAIP8L3 (11732012_x_at) / Fold change /veh TNFAIP8L3 (11732012_x_at) / RFU MBOAT4 (11741988_at) / Fold change /veh MBOAT4 (11741988_at) / RFU 11764193_at / Fold change /veh 11764193_at / RFU TMEM53 (11763286_at) / Fold change /veh TMEM53 (11763286_at) / RFU MAGEB2 (11727129_at) / Fold change /veh MAGEB2 (11727129_at) / RFU TMEM200A (11744735_a_at) / Fold change /veh TMEM200A (11744735_a_at) / RFU CCDC152 (11751479_a_at) / Fold change /veh CCDC152 (11751479_a_at) / RFU FAM211A (11726209_a_at) / Fold change /veh FAM211A (11726209_a_at) / RFU RGS16 (11746705_a_at) / Fold change /veh RGS16 (11746705_a_at) / RFU VCAN (11755009_s_at) / Fold change /veh VCAN (11755009_s_at) / RFU RHOB (11743442_s_at) / Fold change /veh RHOB (11743442_s_at) / RFU RGS16 (11720943_a_at) / Fold change /veh RGS16 (11720943_a_at) / RFU RGS16 (11720944_at) / Fold change /veh RGS16 (11720944_at) / RFU, VPS4B / Fold change vs veh, VPS4B / RFU, CREB1 / Fold change vs veh, CREB1 / RFU, DNAJC13 / Fold change vs veh, DNAJC13 / RFU, GNAQ / Fold change vs veh, GNAQ / RFU, CDK5R1 / Fold change vs veh, CDK5R1 / RFU, ZRANB3 / Fold change vs veh, ZRANB3 / RFU, CUL4A / Fold change vs veh, CUL4A / RFU, CCNY / Fold change vs veh, CCNY / RFU, UFL1 / Fold change vs veh, UFL1 / RFU, COG3 / Fold change vs veh, COG3 / RFU, DIAPH2 / Fold change vs veh, DIAPH2 / RFU, SKA2 / Fold change vs veh, SKA2 / RFU, AFF3 / Fold change vs veh, AFF3 / RFU, LMF1 / Fold change vs veh, LMF1 / RFU, IPO11 / Fold change vs veh, IPO11 / RFU, DFFB / Fold change vs veh, DFFB / RFU, FOXP1 / Fold change vs veh, FOXP1 / RFU, CARD8 / Fold change vs veh, CARD8 / RFU, STRN3 / Fold change vs veh, STRN3 / RFU, ADK / Fold change vs veh, ADK / RFU, RASSF2 / Fold change vs veh, RASSF2 / RFU, WIPF1 / Fold change vs veh, WIPF1 / RFU, LARP1B / Fold change vs veh, LARP1B / RFU, RASA1 / Fold change vs veh, RASA1 / RFU, RB1 / Fold change vs veh, RB1 / RFU, PPFIA1 / Fold change vs veh, PPFIA1 / RFU, MAT2A / Fold change vs veh, MAT2A / RFU, CCT5 / Fold change vs veh, CCT5 / RFU, WDR92 / Fold change vs veh, WDR92 / RFU, CUX1 / Fold change vs veh, CUX1 / RFU, TTC7A / Fold change vs veh, TTC7A / RFU, TMEM135 / Fold change vs veh, TMEM135 / RFU, DEPTOR / Fold change vs veh, DEPTOR / RFU, CPM / Fold change vs veh, CPM / RFU, DNAJB6 / Fold change vs veh, DNAJB6 / RFU, CACNA2D3 / Fold change vs veh, CACNA2D3 / RFU, DTX4 / Fold change vs veh, DTX4 / RFU, TFCP2 / Fold change vs veh, TFCP2 / RFU, GMCL1 /// GMCL1P1 / Fold change vs veh, GMCL1 /// GMCL1P1 / RFU, AEBP2 / Fold change vs veh, AEBP2 / RFU, SNHG1 /// SNORD22 /// SNORD25 /// SNORD26 /// SNORD27 /// SNORD28 /// SNORD29 /// SNORD31 / Fold change vs veh, SNHG1 /// SNORD22 /// SNORD25 /// SNORD26 /// SNORD27 /// SNORD28 /// SNORD29 /// SNORD31 / Fold change (Aza/veh), C12orf56 (ProbeSet 11735607_a_at) / Fold change (ACY-1035/veh), C12orf56 (ProbeSet 11735607_a_at) / Fold change (Aza/veh), FGFR1OP (ProbeSet 11751329_s_at) / Fold change (ACY-1035/veh), FGFR1OP (ProbeSet 11751329_s_at) / Fold change (Aza/veh), VPS36 (ProbeSet 11739960_a_at) / Fold change (ACY-1035/veh), VPS36 (ProbeSet 11739960_a_at) / RFU SYPL1 (11715823_x_at) / Fold change /veh SYPL1 (11715823_x_at) / RFU IGFBP7 (11715501_s_at) / Fold change /veh IGFBP7 (11715501_s_at) / RFU REEP3 (11722064_at) / Fold change /veh REEP3 (11722064_at) / RFU IGLL1 (11728026_x_at) / Fold change /veh IGLL1 (11728026_x_at): dose or concentration left out as unconfirmed
Conditions: MV-4-11 cells, 48 hours

Nc1ccc(-c2cccs2)cc1NC(=O)c1ccc2c(c1)cc(C1CC1)n2CCN1CCOCC1 [ACY-1035]
Fold change /veh VCAN (11748164_a_at): 1.07
